From ChEMBL document CHEMBL1201862, “PubChem BioAssay data set” (2004)
Structures can show the parent of a compound that is named as a salt.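 Step 1: Grow cells in 96-well plates. Step 2: Expose to compound for 48 hours at 5 concentrations. Step 3: Interpolate endpoints linearly; if unreached, use highest concentration. At the GI50, growth is halved.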 The source made the active and inactive calls. No stated cut-off is given here; in the data, active = GI50 up to about 1.1 µM and inactive = higher.

Key:
Test in all cases: NCI anticancer screen, dose series, 48 h
OVCAR-8 = test system: OVCAR-8
CCRF-CEM = test system: CCRF-CEM
SK-MEL-28 = test system: SK-MEL-28
SF-295 = test system: SF-295
MOLT-4 = test system: MOLT-4
NCI-H522 = test system: NCI-H522
K562 = test system: K562
RXF 393 = test system: RXF 393
U-251 = test system: U-251
PC-3 = test system: PC-3
SR = test system: SR
DU-145 = test system: DU-145
CAKI-1 = test system: CAKI-1
UO-31 = test system: UO-31
SNB-19 = test system: SNB-19
HL-60 = test system: HL-60
NCI/ADR-RES = test system: NCI/ADR-RES
OVCAR-3 = test system: OVCAR-3
NCI-H460 = test system: NCI-H460
OVCAR-5 = test system: OVCAR-5

| SMILES | GI50 (OVCAR-8) | GI50 (CCRF-CEM) | GI50 (SK-MEL-28) | GI50 (SF-295) | GI50 (MOLT-4) | GI50 (NCI-H522) | GI50 (K562) | GI50 (RXF 393) | GI50 (U-251) | GI50 (PC-3) | GI50 (SR) | GI50 (DU-145) | GI50 (CAKI-1) | GI50 (UO-31) | GI50 (SNB-19) | GI50 (HL-60) | GI50 (NCI/ADR-RES) | GI50 (OVCAR-3) | GI50 (NCI-H460) | GI50 (OVCAR-5) |
| --- | --- | --- | --- | --- | --- | --- | --- | --- | --- | --- | --- | --- | --- | --- | --- | --- | --- | --- | --- | --- |
| CCOC1=NC(C(F)(F)F)(C(F)(F)F)N=C(N2CCCCC2)O1 | > 100 µM (inactive) | > 100 µM (inactive) | > 100 µM (inactive) | > 100 µM (inactive) | > 100 µM (inactive) | > 100 µM (inactive) | > 100 µM (inactive) | > 100 µM (inactive) | > 100 µM (inactive) | > 100 µM (inactive) | 59 µM (inactive) | > 100 µM (inactive) | > 100 µM (inactive) | > 100 µM (inactive) | > 100 µM (inactive) | 29.3 µM (inactive) | > 100 µM (inactive) | > 100 µM (inactive) | > 100 µM (inactive) | > 100 µM (inactive) |
| CCOC(=O)c1c(NC(=O)c2cccs2)sc2c1CCCC2 | 61.9 µM (inactive) | > 100 µM (inactive) | > 100 µM (inactive) | 27.3 µM (inactive) | > 100 µM (inactive) | 39.9 µM (inactive) | > 100 µM (inactive) | 12.7 µM (inactive) | 28.1 µM (inactive) | 54.8 µM (inactive) | > 80.9 µM (inactive) | > 80.4 µM (inactive) | 60.4 µM (inactive) | > 63.1 µM (inactive) | 30.1 µM (inactive) | > 100 µM (inactive) | > 100 µM (inactive) | 46.3 µM (inactive) | > 88.9 µM (inactive) | 35 µM (inactive) |
| CC[C@@H]1C(=O)OC[C@@H]1Cc1cncn1C [PILOCARPINE HYDROCHLORIDE] | > 100 µM (inactive) | > 100 µM (inactive) | > 100 µM (inactive) | > 100 µM (inactive) | > 100 µM (inactive) | > 100 µM (inactive) | > 100 µM (inactive) | > 100 µM (inactive) | > 100 µM (inactive) | > 100 µM (inactive) | > 100 µM (inactive) | > 100 µM (inactive) | > 100 µM (inactive) | > 100 µM (inactive) | > 100 µM (inactive) | > 100 µM (inactive) | > 100 µM (inactive) | > 100 µM (inactive) | > 100 µM (inactive) | > 100 µM (inactive) |
| O=[N+]([O-])c1ccc2c(c1)Sc1ccccc1N2 | > 100 µM (inactive) | 20.7 µM (inactive) | > 100 µM (inactive) | > 100 µM (inactive) | 6.34 µM (inactive) | 6.73 µM (inactive) | 5.41 µM (inactive) | 37.8 µM (inactive) | 67.3 µM (inactive) | 31.9 µM (inactive) | 12 µM (inactive) | 74.6 µM (inactive) | > 100 µM (inactive) | > 100 µM (inactive) | 78.2 µM (inactive) | 5.11 µM (inactive) | 14.4 µM (inactive) | > 100 µM (inactive) | 22.8 µM (inactive) | > 100 µM (inactive) |
| O=C1C=CC(=O)c2c1c1c(c3c2C2c4ccccc4C3c3ccccc32)C2c3ccccc3C1c1ccccc12 | 1.53 µM (inactive) | 0.368 µM (active) | 1.42 µM (inactive) | 14.9 µM (inactive) | 0.836 µM (active) | 0.515 µM (active) | 3.69 µM (inactive) | 1.59 µM (inactive) | 8.71 µM (inactive) | 1.74 µM (inactive) | 1.95 µM (inactive) | 15.1 µM (inactive) | 1.73 µM (inactive) | 2.04 µM (inactive) | 16.2 µM (inactive) | 1.54 µM (inactive) | 5.04 µM (inactive) | 1.77 µM (inactive) | 13.2 µM (inactive) | 6.55 µM (inactive) |
| OC1[C@@H]2[C@@H](O)CCCN2C[C@@H](O)[C@H]1O (stereo not given in full) | > 100 µM (inactive) | > 100 µM (inactive) | > 100 µM (inactive) | > 100 µM (inactive) | > 100 µM (inactive) | 19.5 µM (inactive) | > 100 µM (inactive) | > 100 µM (inactive) | > 100 µM (inactive) | > 100 µM (inactive) | > 100 µM (inactive) | > 100 µM (inactive) | > 100 µM (inactive) | > 100 µM (inactive) | > 100 µM (inactive) | > 100 µM (inactive) | > 100 µM (inactive) | > 100 µM (inactive) | > 100 µM (inactive) | > 100 µM (inactive) |
